Test results from patent publication US20100056636A1, “N-Substituted-P-Menthane-3-Carboxamide and Uses Thereof” (priority 2006, published 2010).

Legend:
[1] = cited from earlier work
[2] = system: small group of panelists; test: Panel tasting of aqueous solutions: cooling intensity matched to a solution of menthol at 2 ppm; type: in vivo, human; details: tasted
[3] = system: panel of experienced flavourists; test: Hard boiled sweets containing cold receptor stimulant, evaluated by a panel of experienced flavourists; type: in vivo, human; details: for strength of products A, B and C relative to each other: hard boiled sweets: A 50 ppm WS-3, B 5 ppm example 1, C 2.5 ppm example 2
Protocol: The sweets were prepared according to the following procedure. Sugar, water and glucose syrup are mixed and boiled till 146° C. The mix is cooled to 120° C., the cold receptor stimulant is added and carefully mixed in. The mix is poured on a cooling table and folded in and molded on a roller.
The sweets prepared were evaluated by a panel of experienced flavourists.

[4] = system: panel of flavourists; test: Comparative sensorial evaluation: aqueous solutions tasted by a panel of flavourists; type: in vivo, human
Protocol: Four aqueous solutions were prepared: A. […] 20 ppm WS-3 dissolved in solution A; and D. 2 ppm WS-3 dissolved in solution A. These solutions were tasted and evaluated by a panel of flavourists. […]

Ethyl 3-(p-menthane-3-carboxamido)acetate [WS-5]
coolness relative to WS-3 ([1]; known): significantly cooler than WS-3

Ethyl 3-(p-menthane-3-carboxamido)acetate [(1R,3R,4S)-WS-5]
perceived cooling relative to WS-3 ([1]; reported in US Patent Application No. 20050222256): 2.5-3.0 times

CCNC(=O)C1CC(C)CCC1C(C)C (stereo not shown) [WS-3, N-Ethyl-p-menthane-3-carboxamide, reference compound]
Concentration with cooling intensity similar to or slightly higher than that of a solution of menthol at 2 ppm [2]: 1.5 ppm
sensory description of hard boiled sweet ([3]; Product A (control): 50 ppm WS-3): “giving coolness and a cold perception” and “having an immediate cooling effect” and “not longlasting”
feeling in the throat ([3]; Product A: hard boiled sweet, dosage of 50 ppm WS-3): irritating feeling in the throat
strength of products A, B and C relative to each other [3]: comparable
sensory description of solution, compared with solution B ([4]; Example 3, solution C: 20 ppm WS-3 in 20 ppm menthol solution, B = 2 ppm product of example 1 in 20 ppm menthol): “more neutral cold perception than B”, “less aggressive cooling than B”, “less long-lasting cooling than B”
sensory description of solution, compared with solution B ([4]; Example 3, solution D: 2 ppm WS-3 in 20 ppm menthol solution, B = 2 ppm product of example 1 in 20 ppm menthol): “more neutral cold perception than B”, “less aggressive cooling than B”, “less long-lasting cooling than B”
sensory description of solution, compared with solution B ([4]; Example 4, solution C: 20 ppm WS-3 in 20 ppm menthol solution, B = 1 ppm product of example 2 in 20 ppm menthol): “more neutral cold perception than B”, “less aggressive cooling than B”, “less long-lasting cooling than B”
sensory description of solution, compared with solution B ([4]; Example 4, solution D: 2 ppm WS-3 in 20 ppm menthol solution, B = 1 ppm product of example 2 in 20 ppm menthol): “more neutral cold perception than B”, “less aggressive cooling than B”, “less long-lasting cooling than B”

CC1CCC(C(C)C)C(C(=O)N[C@H]2C[C@H]2c2ccccc2)C1 (stereo partly drawn) [Example 6, 2-isopropyl-5-methyl-N-((1S,2S)-2-phenylcyclopropyl)-cyclohexanecarboxamide]
Concentration with cooling intensity similar to or slightly higher than that of a solution of menthol at 2 ppm [2]: 0.1 ppm

CC1CCC(C(C)C)C(O)C1 (stereo not shown) [menthol, reference compound]
Concentration with cooling intensity similar to or slightly higher than that of a solution of menthol at 2 ppm [2]: 2.0 ppm
sensory description of solution ([4]; solution A: 20 ppm menthol in water): “cooling”

CCOc1ccccc1CCNC(=O)C1CC(C)CCC1C(C)C (stereo not shown) [Example 5, N-(2-ethoxyphenethyl)-2-isopropyl-5-methylcyclohexane-carboxamide]
Concentration with cooling intensity similar to or slightly higher than that of a solution of menthol at 2 ppm [2]: 0.002 ppm

CC1CCC(C(C)C)C(C(=O)NCC(O)c2ccccc2)C1 (stereo not shown) [Example 1, 2-isopropyl-5-methyl-cyclohexanecarboxylic acid (2-hydroxy-2-phenylethyl)-amide]
Concentration with cooling intensity similar to or slightly higher than that of a solution of menthol at 2 ppm [2]: 0.005 ppm
location of effect and aftertaste ([3]; Product B: 5 ppm product prepared in example 1): in the whole mouth and has a tingling-cool aftertaste
sensory description of hard boiled sweet ([3]; Product B: 5 ppm product prepared in example 1, A = 50 ppm WS-3): “giving a cold sensation which is not irritating” and “much more longlasting than A”
strength of products A, B and C relative to each other [3]: comparable
sensory description of solution ([4]; Example 3, solution B: 2 ppm product of example 1 dissolved in 20 ppm menthol aqueous solution): “high initial cooling burst”, “long-lasting cooling”, “cold perception in whole mouth”, “some hotness”
strength of solution B relative to solution D ([4]; Example 3: 2 ppm product of example 1 versus 2 ppm WS-3, both in 20 ppm menthol solution): much stronger
strength of solution B relative to solution C ([4]; Example 3: 2 ppm product of example 1 versus 20 ppm WS-3, both in 20 ppm menthol solution): comparable strength

CC1CCC(C(C)C)C(C(=O)NCCc2ccccc2)C1 (stereo not shown) [Example 2, 2-isopropyl-5-methyl-cyclohexanecarboxylic acid phenylethyl-amide]
Concentration with cooling intensity similar to or slightly higher than that of a solution of menthol at 2 ppm [2]: 0.2 ppm
sensory description of hard boiled sweet ([3]; Product C: 2.5 ppm product prepared in example 2): “slow release cooling”, “giving a cold effect in the whole mouth”, “tingling pain sensation enhancing the cooling effect and “very longlasting”
strength of products A, B and C relative to each other [3]: comparable
sensory description of solution ([4]; Example 4, solution B: 1 ppm product of example 2 dissolved in 20 ppm menthol aqueous solution): “cold perception with a pain sensation”, “aggressive, long-lasting cooling”, “almost noxious cold”, “slightly tingling”
strength of solution B relative to solution D ([4]; Example 4: 1 ppm product of example 2 versus 2 ppm WS-3, both in 20 ppm menthol solution): much stronger
strength of solution B relative to solution C ([4]; Example 4: 1 ppm product of example 2 versus 20 ppm WS-3, both in 20 ppm menthol solution): comparable strength

N-(3,4-dimethylphenethyl)-2-isopropyl-5-ethylcyclo-hexanecarboxamide [Example 7]
Concentration with cooling intensity similar to or slightly higher than that of a solution of menthol at 2 ppm [2]: 0.002 ppm
